In the OligoGym collection one finds target mRNA inhibition data, which are given here for 30 substances.

Several values for one entry are separate records, joined by “and”; a condition that tells them apart may be missing. Equal entries are not always repeated. HELM strings list units from the 5' end as sugar, base in round brackets, then linkage (d deoxyribose, r ribose, m 2'-O-methyl, p phosphodiester). Methylation of C is not given here. [moe] = 2'-O-(2-methoxyethyl) (MOE); [cEt] = constrained ethyl (cEt); [sp] = phosphorothioate linkage

This data set deals with HBV. The following applies: ASO.

In the case of “RNA1{[moe](C)[sp].[moe](A)[sp].[moe](G)[sp].[moe](A)[sp].d(G)[sp].d(G)[sp].d(T)[sp].d(G)[sp].d(A)[sp].d(A)[sp].d(G)[sp].d(C)[sp].d(G)[sp].[moe](A)[sp].[moe](A)[sp].[moe](G)[sp].[moe](T)}$$$$V2.0”, the target mRNA inhibition (HepG2, 0.07 µM) is 60% and 45%.

As for “RNA1{[moe](C)[sp].[moe](A)[sp].[moe](G)[sp].d(A)[sp].d(G)[sp].d(G)[sp].d(T)[sp].d(G)[sp].d(A)[sp].d(A)[sp].d(G)[sp].d(C)[sp].d(G)[sp].[cEt](A)[sp].[cEt](A)[sp].[cEt](G)}$$$$V2.0”, under “HepG2, 0.07 µM”, the target mRNA inhibition is 60% and 62%.

Consider “RNA1{[moe](C)[sp].[moe](C)[sp].[moe](A)[sp].[moe](A)[sp].[moe](T)[sp].d(T)[sp].d(T)[sp].d(A)[sp].d(T)[sp].d(G)[sp].d(C)[sp].d(C)[sp].d(T)[sp].d(A)[sp].[moe](C)[sp].[moe](A)[sp].[moe](G)}$$$$V2.0”, for which the target mRNA inhibition (HepG2, 0.07 µM) is 25% and 9%.

In the case of “RNA1{[moe](C)[sp].[moe](C)[sp].[moe](A)[sp].[moe](A)[sp].d(T)[sp].d(T)[sp].d(T)[sp].d(A)[sp].d(T)[sp].d(G)[sp].d(C)[sp].d(C)[sp].d(T)[sp].[moe](A)[sp].[moe](C)[sp].[moe](A)[sp].[moe](G)}$$$$V2.0”, for the setting “HepG2, 0.07 µM”, the target mRNA inhibition is 34% and 11%.

“RNA1{[moe](C)[sp].[moe](C)[sp].[moe](A)[sp].d(C)[sp].d(T)[sp].d(G)[sp].d(A)[sp].d(A)[sp].d(C)[sp].d(A)[sp].d(A)[sp].d(A)[sp].d(T)[sp].[cEt](G)[sp].[cEt](G)[sp].[cEt](C)}$$$$V2.0”: the target mRNA inhibition (HepG2, 0.07 µM) was 77% and 78%.

On to “RNA1{[moe](C)[sp].[moe](C)[sp].d(A)[sp].d(A)[sp].d(T)[sp].d(T)[sp].d(T)[sp].d(A)[sp].d(T)[sp].d(G)[sp].d(C)[sp].[moe](C)[sp].[moe](T)[sp].[moe](A)[sp].[moe](C)[sp].[moe](A)[sp].[moe](G)}$$$$V2.0”, for which, for the setting “HepG2, 0.07 µM”, the target mRNA inhibition is 41% and 42%.

“RNA1{[moe](C)[sp].[moe](C)[sp].d(A)[sp].d(A)[sp].d(T)[sp].d(T)[sp].d(T)[sp].d(A)[sp].d(T)[sp].d(G)[sp].d(C)[sp].[moe](C)[sp].[moe](T)[sp].[moe](A)[sp].[moe](C)[sp].[moe](A)}$$$$V2.0”: for the setting “HepG2, 0.07 µM”, the target mRNA inhibition is 13% and 22%.

Turning to “RNA1{[moe](C)[sp].[moe](C)[sp].d(G)[sp].d(C)[sp].d(A)[sp].d(G)[sp].d(T)[sp].d(A)[sp].d(T)[sp].d(G)[sp].d(G)[sp].[moe](A)[sp].[moe](T)[sp].[moe](C)[sp].[moe](G)[sp].[moe](G)[sp].[moe](C)}$$$$V2.0”, the target mRNA inhibition (HepG2, 0.07 µM) is 86% and 80%.

For “RNA1{[moe](C)[sp].[moe](G)[sp].[moe](A)[sp].[moe](A)[sp].[moe](C)[sp].[moe](C)[sp].d(A)[sp].d(C)[sp].d(T)[sp].d(G)[sp].d(A)[sp].d(A)[sp].d(C)[sp].d(A)[sp].d(A)[sp].[moe](A)[sp].[moe](T)}$$$$V2.0”, the target mRNA inhibition (HepG2, 0.07 µM) was 0% and 20%.

On to “RNA1{[moe](C)[sp].[moe](G)[sp].[moe](A)[sp].[moe](A)[sp].[moe](C)[sp].d(C)[sp].d(A)[sp].d(C)[sp].d(T)[sp].d(G)[sp].d(A)[sp].d(A)[sp].d(C)[sp].d(A)[sp].[moe](A)[sp].[moe](A)}$$$$V2.0”, for which the target mRNA inhibition (HepG2, 0.07 µM) is 36% and 19%.

Regarding “RNA1{[moe](C)[sp].[moe](G)[sp].[moe](A)[sp].[moe](A)[sp].d(C)[sp].d(C)[sp].d(A)[sp].d(C)[sp].d(T)[sp].d(G)[sp].d(A)[sp].d(A)[sp].d(C)[sp].[moe](A)[sp].[moe](A)[sp].[moe](A)[sp].[moe](T)}$$$$V2.0”, the target mRNA inhibition (HepG2, 0.07 µM) was 48% and 41%.

Take “RNA1{[moe](C)[sp].[moe](G)[sp].[moe](C)[sp].[moe](A)[sp].[moe](G)[sp].d(T)[sp].d(A)[sp].d(T)[sp].d(G)[sp].d(G)[sp].d(A)[sp].d(T)[sp].d(C)[sp].d(G)[sp].[moe](G)[sp].[moe](C)[sp].[moe](A)}$$$$V2.0”: the target mRNA inhibition (HepG2, 0.07 µM) is 56% and 57%.

On to “RNA1{[moe](C)[sp].[moe](G)[sp].[moe](C)[sp].[moe](A)[sp].[moe](G)[sp].d(T)[sp].d(A)[sp].d(T)[sp].d(G)[sp].d(G)[sp].d(A)[sp].d(T)[sp].d(C)[sp].d(G)[sp].[moe](G)[sp].[moe](C)}$$$$V2.0”, for which the target mRNA inhibition (HepG2, 0.07 µM) was 64% and 57%.

On to “RNA1{[moe](C)[sp].[moe](G)[sp].[moe](C)[sp].d(A)[sp].d(G)[sp].d(T)[sp].d(A)[sp].d(T)[sp].d(G)[sp].d(G)[sp].d(A)[sp].d(T)[sp].[moe](C)[sp].[moe](G)[sp].[moe](G)[sp].[moe](C)[sp].[moe](A)}$$$$V2.0”, for which the target mRNA inhibition by setting is: (HepG2, 0.0092593 µM) 7%; (HepG2, 0.0277778 µM) 38%; (HepG2, 0.07 µM) 85% and 80%; (HepG2, 0.0833333 µM) 78%; (HepG2, 0.25 µM) 89%.

As to “RNA1{[moe](C)[sp].[moe](G)[sp].[moe](G)[sp].d(G)[sp].d(C)[sp].d(A)[sp].d(A)[sp].d(C)[sp].d(A)[sp].d(T)[sp].d(A)[sp].d(C)[sp].[moe](C)[sp].[moe](T)[sp].[moe](T)[sp].[moe](G)}$$$$V2.0”, the target mRNA inhibition (HepG2, 0.07 µM) was 56% and 45%.

Turning to “RNA1{[moe](C)[sp].[moe](G)[sp].[moe](G)[sp].d(G)[sp].d(C)[sp].d(A)[sp].d(A)[sp].d(C)[sp].d(A)[sp].d(T)[sp].d(A)[sp].d(C)[sp].d(C)[sp].[cEt](T)[sp].[cEt](T)[sp].[cEt](G)}$$$$V2.0”, the target mRNA inhibition (HepG2, 0.07 µM) was 56% and 65%.

As for “RNA1{[moe](C)[sp].[moe](G)[sp].[moe](T)[sp].[moe](G)[sp].[moe](C)[sp].d(A)[sp].d(G)[sp].d(A)[sp].d(G)[sp].d(G)[sp].d(T)[sp].d(G)[sp].d(A)[sp].d(A)[sp].[moe](G)[sp].[moe](C)[sp].[moe](G)}$$$$V2.0”, the target mRNA inhibition (HepG2, 0.07 µM) was 74% and 63%.

Turning to “RNA1{[moe](C)[sp].[moe](G)[sp].[moe](T)[sp].[moe](G)[sp].d(C)[sp].d(A)[sp].d(G)[sp].d(A)[sp].d(G)[sp].d(G)[sp].d(T)[sp].d(G)[sp].d(A)[sp].[moe](A)[sp].[moe](G)[sp].[moe](C)[sp].[moe](G)}$$$$V2.0”, under “HepG2, 0.07 µM”, the target mRNA inhibition is 58% and 43%.

For “RNA1{[moe](C)[sp].[moe](G)[sp].[moe](T)[sp].d(G)[sp].d(C)[sp].d(A)[sp].d(G)[sp].d(A)[sp].d(G)[sp].d(G)[sp].d(T)[sp].d(G)[sp].[moe](A)[sp].[moe](A)[sp].[moe](G)[sp].[moe](C)}$$$$V2.0”, the target mRNA inhibition (HepG2, 0.07 µM) was 62% and 42%.

On to “RNA1{[moe](C)[sp].[moe](G)[sp].d(T)[sp].d(G)[sp].d(C)[sp].d(A)[sp].d(G)[sp].d(A)[sp].d(G)[sp].d(G)[sp].d(T)[sp].[moe](G)[sp].[moe](A)[sp].[moe](A)[sp].[moe](G)[sp].[moe](C)[sp].[moe](G)}$$$$V2.0”, for which, under “HepG2, 0.07 µM”, the target mRNA inhibition is 74% and 68%.

For “RNA1{[moe](C)[sp].[moe](T)[sp].[moe](A)[sp].d(G)[sp].d(T)[sp].d(A)[sp].d(A)[sp].d(A)[sp].d(C)[sp].d(T)[sp].d(G)[sp].d(A)[sp].[moe](G)[sp].[moe](C)[sp].[moe](C)[sp].[moe](A)}$$$$V2.0”, where the note is “HepG2, 0.07 µM”, the target mRNA inhibition is 66% and 60%.

As to “RNA1{[moe](C)[sp].[moe](T)[sp].[moe](G)[sp].[moe](G)[sp].[moe](A)[sp].[moe](G)[sp].d(C)[sp].d(C)[sp].d(A)[sp].d(C)[sp].d(C)[sp].d(A)[sp].d(G)[sp].d(C)[sp].d(A)[sp].[moe](G)[sp].[moe](G)}$$$$V2.0”, under “HepG2, 0.07 µM”, the target mRNA inhibition was 54% and 50%.

Take “RNA1{[moe](C)[sp].[moe](T)[sp].[moe](G)[sp].[moe](G)[sp].[moe](A)[sp].d(G)[sp].d(C)[sp].d(C)[sp].d(A)[sp].d(C)[sp].d(C)[sp].d(A)[sp].d(G)[sp].d(C)[sp].[moe](A)[sp].[moe](G)[sp].[moe](G)}$$$$V2.0”: under “HepG2, 0.07 µM”, the target mRNA inhibition is 42% and 44%.

Take “RNA1{[moe](C)[sp].[moe](T)[sp].[moe](G)[sp].d(G)[sp].d(A)[sp].d(G)[sp].d(C)[sp].d(C)[sp].d(A)[sp].d(C)[sp].d(C)[sp].d(A)[sp].[moe](G)[sp].[moe](C)[sp].[moe](A)[sp].[moe](G)[sp].[moe](G)}$$$$V2.0”: under “HepG2, 0.07 µM”, the target mRNA inhibition was 79% and 64%.

As to “RNA1{[moe](G)[sp].[cEt](A)[sp].[cEt](A)[sp].d(C)[sp].d(C)[sp].d(A)[sp].d(C)[sp].d(T)[sp].d(G)[sp].d(A)[sp].d(A)[sp].d(C)[sp].d(A)[sp].[cEt](A)[sp].[cEt](A)[sp].[moe](T)}$$$$V2.0”, the target mRNA inhibition (HepG2, 0.07 µM) is 65% and 53%.

As to “RNA1{[moe](G)[sp].[cEt](A)[sp].[cEt](G)[sp].d(G)[sp].d(C)[sp].d(A)[sp].d(T)[sp].d(A)[sp].d(G)[sp].d(C)[sp].d(A)[sp].d(G)[sp].d(C)[sp].[cEt](A)[sp].[cEt](G)[sp].[moe](G)}$$$$V2.0”, the target mRNA inhibition (HepG2, 0.07 µM) is 64% and 67%.

Turning to “RNA1{[moe](G)[sp].[cEt](A)[sp].[cEt](G)[sp].d(T)[sp].d(T)[sp].d(C)[sp].d(C)[sp].d(G)[sp].d(C)[sp].d(A)[sp].d(G)[sp].d(T)[sp].d(A)[sp].[cEt](T)[sp].[cEt](G)[sp].[moe](G)}$$$$V2.0”, under “HepG2, 0.07 µM”, the target mRNA inhibition is 83% and 76%.

In the case of “RNA1{[moe](G)[sp].[cEt](A)[sp].d(A)[sp].d(G)[sp].d(T)[sp].d(C)[sp].d(C)[sp].d(A)[sp].d(C)[sp].d(C)[sp].d(A)[sp].d(C)[sp].[cEt](G)[sp].[moe](A)[sp].[cEt](G)[sp].[moe](T)}$$$$V2.0”, the target mRNA inhibition (HepG2, 0.07 µM) is 43% and 50%.

Regarding “RNA1{[moe](G)[sp].[cEt](C)[sp].[cEt](A)[sp].d(G)[sp].d(T)[sp].d(A)[sp].d(T)[sp].d(G)[sp].d(G)[sp].d(A)[sp].d(T)[sp].d(C)[sp].d(G)[sp].[cEt](G)[sp].[cEt](C)[sp].[moe](A)}$$$$V2.0”, where the note is “HepG2, 0.07 µM”, the target mRNA inhibition is 77% and 75%.

“RNA1{[moe](G)[sp].[cEt](G)[sp].[cEt](A)[sp].d(G)[sp].d(T)[sp].d(T)[sp].d(C)[sp].d(C)[sp].d(G)[sp].d(C)[sp].d(A)[sp].d(G)[sp].d(T)[sp].[cEt](A)[sp].[cEt](T)[sp].[moe](G)}$$$$V2.0”: the target mRNA inhibition runs as follows: (HepG2, 0.0092593 µM) 13%; (HepG2, 0.0277778 µM) 42%; (HepG2, 0.07 µM) 90% and 76%; (HepG2, 0.0833333 µM) 74%; (HepG2, 0.25 µM) 89%.
